Measurements: ChEMBL document CHEMBL1150791, “blaVIM-2-harboring integrons isolated in India, Russia, and the United States arise from an ancestral class 1 integron predating the formation of the 3' conserved sequence” (2007)

Test system: Pseudomonas aeruginosa
Test: Antibacterial activity against blaVIM2-harboring integrons containing Pseudomonas aeruginosa 42 isolate from ventilator-associated pneumonia patient
Type: functional

Row | Compound | Activity [µg/mL]
1 | O=C(O)c1cn(C2CC2)c2cc(N3CCNCC3)c(F)cc2c1=O [CIPROFLOXACIN] | >32
2 | C[C@@H](O)[C@H]1C(=O)N2C(C(=O)O)=C(S[C@@H]3CN[C@H](C(=O)N(C)C)C3)[C@H](C)[C@H]12 [MEROPENEM] | >32
3 | CCN1CCN(C(=O)N[C@@H](C(=O)N[C@@H]2C(=O)N3[C@@H]2SC(C)(C)[C@@H]3C(=O)O)c2ccccc2)C(=O)C1=O [PIPERACILLIN] | >256
4 | C[C@@H](O)[C@H]1C(=O)N2C(C(=O)O)=C(SCCNC=N)C[C@H]12 [IMIPENEM ANHYDROUS] | >32
5 | NCC[C@H](O)C(=O)N[C@@H]1C[C@H](N)[C@@H](O[C@H]2O[C@H](CN)[C@@H](O)[C@H](O)[C@H]2O)[C@H](O)[C@H]1O[C@H]1O[C@H](CO)[C@@H](O)[C@H](N)[C@H]1O [AMIKACIN] | 8
6 | C[C@H]1[C@H](NC(=O)/C(=N\OC(C)(C)C(=O)O)c2csc(N)n2)C(=O)N1S(=O)(=O)O [AZTREONAM] | >256
7 | CC(C)(O/N=C(\C(=O)N[C@@H]1C(=O)N2C(C(=O)[O-])=C(C[n+]3ccccc3)CS[C@H]12)c1csc(N)n1)C(=O)O [CEFTAZIDIME] | 96
8 | CO/N=C(\C(=O)N[C@@H]1C(=O)N2C(C(=O)[O-])=C(C[N+]3(C)CCCC3)CS[C@H]12)c1csc(N)n1 [CEFEPIME] | >256
9 | COLISTIN | 1
